One block for each compound: values may come before it.
Assays:
[1] = target: T1, Neuropeptide FF receptor 2 (Homo sapiens, UniProt Q9Y5X5); assay: Displacement of [3H]FFRF-NH2 from human flag-tagged NPFF2 receptor expressed in CHO cells by scintillation counting; type: cell-based
[2] = target: T2, Neuropeptide FF receptor 1 (Homo sapiens, UniProt Q9GZQ6); assay: Displacement of [3H]FFRF-NH2 from human flag-tagged NPFF1 receptor expressed in CHO cells by scintillation counting; type: cell-based
[3] = target: T2, Neuropeptide FF receptor 1; assay: Displacement of [3H]FFRF-NH2 from human flag-tagged NPFF1 receptor expressed in CHO cells at 500 nM by scintillation counting; type: cell-based
[4] = target: T1, Neuropeptide FF receptor 2; assay: Displacement of [3H]FFRF-NH2 from human flag-tagged NPFF2 receptor expressed in CHO cells at 5 uM by scintillation counting; type: cell-based
[5] = target: T2, Neuropeptide FF receptor 1; assay: Displacement of [3H]FFRF-NH2 from human flag-tagged NPFF1 receptor expressed in CHO cells at 5 uM by scintillation counting; type: cell-based
[6] = target: T1, Neuropeptide FF receptor 2; assay: Displacement of [3H]FFRF-NH2 from human flag-tagged NPFF2 receptor expressed in CHO cells at 500 nM by scintillation counting; type: cell-based
[7] = target: T1, Neuropeptide FF receptor 2; assay: Ratio of RF2 Ki to compound Ki for human flag-tagged NPFF2 receptor

T2 sequence (Q9GZQ6 whole entry): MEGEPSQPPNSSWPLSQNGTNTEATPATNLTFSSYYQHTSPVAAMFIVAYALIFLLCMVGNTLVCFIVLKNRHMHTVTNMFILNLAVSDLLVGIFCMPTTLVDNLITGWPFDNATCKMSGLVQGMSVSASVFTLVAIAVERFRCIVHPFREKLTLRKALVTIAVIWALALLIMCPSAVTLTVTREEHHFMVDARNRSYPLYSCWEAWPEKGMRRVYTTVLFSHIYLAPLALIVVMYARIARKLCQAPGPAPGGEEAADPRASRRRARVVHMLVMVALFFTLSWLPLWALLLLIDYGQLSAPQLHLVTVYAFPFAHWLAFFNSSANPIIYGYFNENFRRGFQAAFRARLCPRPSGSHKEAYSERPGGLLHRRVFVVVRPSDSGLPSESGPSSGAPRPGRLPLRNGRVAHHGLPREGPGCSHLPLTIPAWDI
T1 sequence (Q9Y5X5 whole entry): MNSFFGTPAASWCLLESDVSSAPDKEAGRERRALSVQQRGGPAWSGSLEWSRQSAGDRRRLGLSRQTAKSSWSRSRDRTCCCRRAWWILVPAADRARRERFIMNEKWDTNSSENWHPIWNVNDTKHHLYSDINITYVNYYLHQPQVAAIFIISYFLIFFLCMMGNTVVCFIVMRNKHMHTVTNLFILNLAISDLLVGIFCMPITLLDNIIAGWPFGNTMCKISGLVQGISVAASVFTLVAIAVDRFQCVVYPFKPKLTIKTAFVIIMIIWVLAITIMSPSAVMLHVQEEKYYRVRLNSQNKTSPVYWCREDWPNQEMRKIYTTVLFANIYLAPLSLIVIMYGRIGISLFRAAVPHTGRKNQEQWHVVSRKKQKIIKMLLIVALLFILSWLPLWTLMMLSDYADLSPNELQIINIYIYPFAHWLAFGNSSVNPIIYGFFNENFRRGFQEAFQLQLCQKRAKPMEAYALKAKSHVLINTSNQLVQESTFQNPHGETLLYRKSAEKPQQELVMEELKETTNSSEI

Ki [1]: 94 nM | Ki [2]: 2 nM
SMILES: NC(=O)[C@H](Cc1ccccc1)NC(=O)[C@@H](CCCN=C(N)N)NC(=O)c1ccc(-c2ccccc2)cc1

Ki [1]: 155 nM | Ki [2]: 5 nM
SMILES: NC(=O)[C@@H](Cc1ccccc1)NC(=O)[C@@H](CCCN=C(N)N)NC(=O)c1ccccc1-c1ccccc1

Ki [2]: 0.9 nM
SMILES: NC(=O)[C@H](Cc1ccccc1)NC(=O)[C@H](CCCN=C(N)N)NC(=O)CCN1c2ccccc2Sc2ccccc21

Ki [1]: 47 nM | Ki [2]: 121 nM
SMILES: NC(=O)[C@H](Cc1ccccc1)NC(=O)[C@H](CCCN=C(N)N)NC(=O)c1ccc2ccccc2n1

Ki [1]: 425 nM | Ki [2]: 35 nM
SMILES: NC(=O)[C@H](Cc1ccccc1)NC(=O)[C@@H](CCCN=C(N)N)NC(=O)Cc1ccccc1

inhibition [3]: 66% | inhibition [4]: 92% | Ki [1]: 92 nM | inhibition [5]: 99% | Ki [2]: 23 nM | inhibition [6]: 32%
SMILES: N=C(N)NCCC[C@H](NC(=O)c1ccccc1)C(=O)N[C@@H](Cc1ccccc1)C(N)=O

Ki [1]: 2020 nM | Ki [2]: 198 nM
SMILES: NC(=O)[C@@H](Cc1ccccc1)NC(=O)[C@@H](CCCN=C(N)N)NC(=O)c1ccccc1

Ki [1]: 9 nM | Ki [2]: 6 nM
SMILES: NC(=O)[C@H](Cc1ccccc1)NC(=O)[C@@H](CCCN=C(N)N)NC(=O)c1cccc(-c2ccccc2)c1

Ki [1]: 141 nM | Ki [2]: 87 nM
SMILES: NC(=O)[C@H](Cc1ccccc1)NC(=O)[C@H](CCCN=C(N)N)NC(=O)c1cccc2ccccc12

Ki [1]: 672 nM | Ki [2]: 110 nM
SMILES: NC(=O)[C@@H](Cc1ccccc1)NC(=O)[C@@H](CCCN=C(N)N)NC(=O)c1cccc(-c2ccccc2)c1

inhibition [3]: 47% | inhibition [4]: 60% | inhibition [5]: 83% | inhibition [6]: 16%
SMILES: N=C(N)NCCC[C@H](NC(=O)Cc1ccccc1Cl)C(=O)N[C@@H](Cc1ccccc1)C(N)=O

Ki [1]: 417 nM | Ki [2]: 167 nM
SMILES: NC(=O)[C@@H](Cc1ccccc1)NC(=O)[C@@H](CCCN=C(N)N)NC(=O)c1ccc(-c2ccccc2)cc1

Ki [1]: 3200 nM | Ki [2]: 273 nM
SMILES: NC(=O)[C@@H](Cc1ccccc1)NC(=O)[C@@H](CCCN=C(N)N)NC(=O)Cc1ccccc1

Ki [1]: 590 nM | Ki [2]: 0.32 nM
SMILES: NC(=O)[C@H](Cc1ccccc1)NC(=O)[C@H](CCCN=C(N)N)NC(=O)c1ccccc1-c1ccccc1

inhibition [3]: 80% | inhibition [4]: 92% | Ki [1]: 22 nM | inhibition [5]: 90% | Ki [2]: 11 nM | Ratio Ki [7]: 5 | inhibition [6]: 55%
SMILES: N=C(N)NCCC[C@@H](NC(=O)c1ccccc1)C(=O)N[C@@H](Cc1ccccc1)C(N)=O

Further lines, the compound ahead of its results:

SMILES: N=C(N)NCCC[C@@H](NC(=O)/C=C/c1ccccc1)C(=O)N[C@@H](Cc1ccccc1)C(N)=O
inhibition [3]: 84% | inhibition [4]: 58% | Ki [1]: 117 nM | inhibition [5]: 95% | Ki [2]: 0.8 nM | inhibition [6]: 18%

SMILES: N=C(N)NCCC[C@@H](NC(=O)c1ccccc1-c1ccccc1)C(=O)N[C@@H](Cc1ccccc1)C(N)=O
inhibition [3]: 89% | inhibition [4]: 90% | Ki [1]: 4 nM | inhibition [5]: 97% | Ki [2]: 2 nM | inhibition [6]: 65%

SMILES: N=C(N)NCCC[C@@H](NC(=O)C(c1ccccc1)c1ccccc1)C(=O)N[C@@H](Cc1ccccc1)C(N)=O
inhibition [3]: 75% | inhibition [4]: 100% | Ki [1]: 4 nM | inhibition [5]: 82% | Ki [2]: 10 nM | inhibition [6]: 84%

SMILES: N=C(N)NCCC[C@@H](NC(=O)C12CC3CC(CC(C3)C1)C2)C(=O)N[C@@H](Cc1ccccc1)C(N)=O
inhibition [3]: 85% | inhibition [4]: 60% | Ki [1]: 142 nM | inhibition [5]: 100% | Ki [2]: 29 nM | inhibition [6]: 21%

SMILES: N=C(N)NCCC[C@H](NC(=O)C12CC3CC(CC(C3)C1)C2)C(=O)N[C@H](Cc1ccccc1)C(N)=O
inhibition [3]: 18% | inhibition [4]: 49% | Ki [1]: 424 nM | inhibition [5]: 79% | Ki [2]: 114 nM | inhibition [6]: 4%

SMILES: NC(=O)[C@@H](Cc1ccccc1)NC(=O)[C@@H](CCCN=C(N)N)NC(=O)C12CC3CC(CC(C3)C1)C2
Ki [1]: 208 nM | Ki [2]: 51 nM

SMILES: N=C(N)NCCC[C@H](NC(=O)c1ccc2cc[nH]c2c1)C(=O)N[C@@H](Cc1ccccc1)C(N)=O
inhibition [3]: 41% | inhibition [4]: 70% | Ki [1]: 136 nM | inhibition [5]: 89% | Ki [2]: 378 nM | inhibition [6]: 38%

SMILES: NC(=O)[C@H](Cc1ccccc1)NC(=O)[C@H](CCCN=C(N)N)NC(=O)C12CC3CC(CC(C3)C1)C2
Ki [1]: 43 nM | Ki [2]: 22 nM

SMILES: COc1ccc(CC(=O)N[C@@H](CCCNC(=N)N)C(=O)N[C@@H](Cc2ccccc2)C(N)=O)cc1OC
inhibition [3]: 8% | inhibition [4]: 28% | inhibition [5]: 70% | inhibition [6]: 0%

SMILES: CCCCCCCCCCC(=O)N[C@@H](CCCNC(=N)N)C(=O)N[C@@H](Cc1ccccc1)C(N)=O
inhibition [3]: 44% | inhibition [4]: 33% | inhibition [5]: 100% | inhibition [6]: 13%

SMILES: N=C(N)NCCC[C@H](NC(=O)c1cnc2ccccc2c1)C(=O)N[C@@H](Cc1ccccc1)C(N)=O
inhibition [3]: 22% | inhibition [4]: 47% | inhibition [5]: 79% | inhibition [6]: 24%

SMILES: N=C(N)NCCC[C@H](NC(=O)/C=C/c1cccnc1)C(=O)N[C@@H](Cc1ccccc1)C(N)=O
inhibition [3]: 3% | inhibition [4]: 27% | inhibition [5]: 41% | inhibition [6]: 6%

SMILES: N=C(N)NCCC[C@H](NC(=O)c1cccc(Cl)c1)C(=O)N[C@@H](Cc1ccccc1)C(N)=O
inhibition [3]: 56% | inhibition [4]: 20% | inhibition [5]: 84% | inhibition [6]: 0%

SMILES: N=C(N)NCCC[C@H](NC(=O)c1ccc(O)c(O)c1)C(=O)N[C@@H](Cc1ccccc1)C(N)=O
inhibition [3]: 18% | inhibition [4]: 28% | inhibition [5]: 56% | inhibition [6]: 0%

SMILES: N=C(N)NCCC[C@@H](NC(=O)/C=C/c1ccccc1)C(=O)N[C@H](Cc1ccccc1)C(N)=O
inhibition [3]: 55% | inhibition [4]: 14% | Ki [1]: 1620 nM | inhibition [5]: 82% | Ki [2]: 84 nM | inhibition [6]: 0%

SMILES: N=C(N)NCCC[C@H](NC(=O)c1cccc2ccccc12)C(=O)N[C@@H](Cc1ccccc1)C(N)=O
inhibition [3]: 40% | inhibition [4]: 82% | inhibition [5]: 90% | inhibition [6]: 37%

SMILES: N=C(N)NCCC[C@H](NC(=O)c1ccc(Cl)c(Cl)c1)C(=O)N[C@@H](Cc1ccccc1)C(N)=O
inhibition [3]: 25% | inhibition [4]: 67% | inhibition [5]: 77% | inhibition [6]: 12%

SMILES: N=C(N)NCCC[C@H](NC(=O)c1ccc2ccccc2c1)C(=O)N[C@@H](Cc1ccccc1)C(N)=O
inhibition [3]: 27% | inhibition [4]: 56% | inhibition [5]: 81% | inhibition [6]: 23%

SMILES: N=C(N)NCCC[C@@H](NC(=O)C(c1ccccc1)c1ccccc1)C(=O)N[C@H](Cc1ccccc1)C(N)=O
inhibition [3]: 74% | inhibition [4]: 46% | Ki [1]: 227 nM | inhibition [5]: 86% | Ki [2]: 15 nM | inhibition [6]: 18%

SMILES: COc1ccccc1C(=O)N[C@@H](CCCNC(=N)N)C(=O)N[C@@H](Cc1ccccc1)C(N)=O
inhibition [3]: 40% | inhibition [4]: 19% | inhibition [5]: 96% | inhibition [6]: 10%

SMILES: N=C(N)NCCC[C@H](NC(=O)c1c(Cl)cccc1Cl)C(=O)N[C@@H](Cc1ccccc1)C(N)=O
inhibition [3]: 30% | inhibition [4]: 11% | inhibition [5]: 85% | inhibition [6]: 0%

SMILES: N=C(N)NCCC[C@H](NC(=O)/C=C/c1cccc(O)c1)C(=O)N[C@@H](Cc1ccccc1)C(N)=O
inhibition [3]: 21% | inhibition [4]: 47% | inhibition [5]: 80% | inhibition [6]: 15%

SMILES: N=C(N)NCCC[C@@H](NC(=O)c1cccc(-c2ccccc2)c1)C(=O)N[C@H](Cc1ccccc1)C(N)=O
inhibition [3]: 63% | inhibition [4]: 38% | inhibition [5]: 88% | inhibition [6]: 6%

SMILES: COc1cccc(C(=O)N[C@@H](CCCNC(=N)N)C(=O)N[C@@H](Cc2ccccc2)C(N)=O)c1
inhibition [3]: 11% | inhibition [4]: 60% | Ki [1]: 206 nM | inhibition [5]: 85% | Ki [2]: 106 nM | inhibition [6]: 5%

SMILES: N=C(N)NCCC[C@@H](NC(=O)C12CC3CC(CC(C3)C1)C2)C(=O)N[C@H](Cc1ccccc1)C(N)=O
inhibition [3]: 57% | inhibition [4]: 57% | inhibition [5]: 100% | inhibition [6]: 11%
